From ChEMBL document CHEMBL1149208, “Synthesis of 1alpha,25-dihydroxyvitamin D3-26,23-lactams (DLAMs), a novel series of 1 alpha,25-dihydroxyvitamin D3 antagonist” (Bioorg Med Chem Lett, 2004)
pIC50: −log10 of the molar value.

Assays:
Vitamin D3 receptor = target: T1, Vitamin D3 receptor (Gallus gallus, UniProt O42392); assay: In vitro relative binding affinity for chick intestinal vitamin D3 receptor compared to [3H]1
T1 sequence (O42392 whole entry): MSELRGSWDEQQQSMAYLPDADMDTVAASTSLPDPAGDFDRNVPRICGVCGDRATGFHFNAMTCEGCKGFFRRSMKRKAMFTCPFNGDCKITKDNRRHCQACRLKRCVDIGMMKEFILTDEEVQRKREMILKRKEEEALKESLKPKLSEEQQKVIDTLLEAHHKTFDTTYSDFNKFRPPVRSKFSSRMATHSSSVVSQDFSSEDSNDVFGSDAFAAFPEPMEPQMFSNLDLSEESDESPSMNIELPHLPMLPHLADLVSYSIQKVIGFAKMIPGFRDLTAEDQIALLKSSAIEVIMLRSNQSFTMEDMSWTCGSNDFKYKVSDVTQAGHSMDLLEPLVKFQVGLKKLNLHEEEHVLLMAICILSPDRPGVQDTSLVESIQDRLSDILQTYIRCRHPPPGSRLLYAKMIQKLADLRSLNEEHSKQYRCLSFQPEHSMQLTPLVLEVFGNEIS

HL-60 = assay: Inhibitory activity on HL-60 cell differentiation induced by 10e-8 M of compound 1 (1,25-D3); set-up: scale not given: the % may be the effect or the level left

pIC50 (Vitamin D3 receptor)	SMILES	Activity (HL-60) [%]
7.52	C=C1/C(=C/C=C2/CCC[C@@]3(C)C2CCC3[C@H](C)C[C@@H]2C[C@@](C)(O)C(=O)N2Cc2ccccc2)C[C@@H](O)C[C@@H]1O (stereo partly drawn)	
8.72	C=C1/C(=C/C=C2/CCC[C@@]3(C)C2CCC3[C@H](C)C[C@H]2C[C@](C)(O)C(=O)N2Cc2ccccc2)C[C@@H](O)C[C@@H]1O (stereo partly drawn)	47
7.99	C=C1/C(=C/C=C2/CCC[C@@]3(C)C2CCC3[C@H](C)C[C@H]2C[C@](C)(O)C(=O)N2C)C[C@@H](O)C[C@@H]1O (stereo partly drawn)	12
7.30	C=C1/C(=C/C=C2/CCC[C@]3(C)[C@@H]([C@H](C)C[C@@H]4C[C@@](C)(O)C(=O)N4C)CC[C@@H]23)C[C@@H](O)C[C@@H]1O	
< 7.00	C=C1/C(=C/C=C2/CCC[C@]3(C)[C@@H]([C@H](C)C[C@@H]4C[C@](C)(O)C(=O)N4C)CC[C@@H]23)C[C@@H](O)C[C@@H]1O (stereo in doubt; form 1)	
< 7.00	C=C1/C(=C/C=C2/CCC[C@]3(C)[C@@H]([C@H](C)C[C@@H]4C[C@](C)(O)C(=O)N4C)CC[C@@H]23)C[C@@H](O)C[C@@H]1O (stereo in doubt; form 2)	
